In US5158939A, “Method of stimulating the immune systems of animals and compositions useful therefor” (priority 1990, dated 1992):

System: endotoxin
Test: Protection of mice against lethal endotoxin challenge
Assay type: in vivo
Conditions: compared with lipid X as reported in the literature
Procedure: The lethal dose of E. coli endotoxin was determined both for the intravenous and for the intraperitoneal challenge. […] (It is important to standardize each lot of endotoxin with each lot of mice.) To determine the approximate dose of lipid A derivative needed to protect against a lethal challenge of endotoxin, mice are pretreated with the lipid A derivative intraperitoneally 2 hours before challenge with 1500 μg of endotoxin, which is 3 times the LD100 dose. Pretreatment of mice with the lipid A derivative appeared to prolong the time to death.

CCCCCCC=CCCCCCC(=O)OC(CCCCCCCCCCC)CC(=O)NC1C(OCC2OC(OP(=O)(O)O)C(NC(=O)CC(=O)CCCCCCCCCCC)C(OC(=O)CC(O)CCCCCCC)C2O)OC(CO)C(OP(=O)(O)O)C1OC(=O)CC(O)CCCCCCC (stereo not shown) [DPLA]
protection of mice against a lethal dose of endotoxin: more effective than lipid X
